Values quoted from earlier work as cited in patent publication US20080318335A1, “Transgenic Plant for Detecting Environmental Chemicals” (priority 2005, published 2008).

Test system: GUS gene
Settings: tobacco including AhR vector; 5 nM 20-methylcholanthrene

## 20-methylcholanthrene
  GUS gene expression: expressed
